In patent US11986471B2, “Compounds and methods of use” (Tango Therapeutics, Inc., priority 2018, dated 2024):

Tests used:
[1] = system: HAP1 MTAP-intact; experiment: SDMA in-cell western assay, HAP1 MTAP-intact cell line; format: cell-based; settings: Homo sapiens
Method in brief: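 HAP1 isogenic pair: endogenous MTAP vs MTAP-null. Readout SDMA by in-cell western; IC50 per line. Ratio ≥3 fold = MTAP-selective.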

[2] = target: T1, PRMT5 (Homo sapiens, UniProt O14744); experiment: PRMT5 IC50 assay with no cofactor; format: biochemical
T1 construct: purchased Viva (custom protein)
T1 sequence (O14744 whole entry): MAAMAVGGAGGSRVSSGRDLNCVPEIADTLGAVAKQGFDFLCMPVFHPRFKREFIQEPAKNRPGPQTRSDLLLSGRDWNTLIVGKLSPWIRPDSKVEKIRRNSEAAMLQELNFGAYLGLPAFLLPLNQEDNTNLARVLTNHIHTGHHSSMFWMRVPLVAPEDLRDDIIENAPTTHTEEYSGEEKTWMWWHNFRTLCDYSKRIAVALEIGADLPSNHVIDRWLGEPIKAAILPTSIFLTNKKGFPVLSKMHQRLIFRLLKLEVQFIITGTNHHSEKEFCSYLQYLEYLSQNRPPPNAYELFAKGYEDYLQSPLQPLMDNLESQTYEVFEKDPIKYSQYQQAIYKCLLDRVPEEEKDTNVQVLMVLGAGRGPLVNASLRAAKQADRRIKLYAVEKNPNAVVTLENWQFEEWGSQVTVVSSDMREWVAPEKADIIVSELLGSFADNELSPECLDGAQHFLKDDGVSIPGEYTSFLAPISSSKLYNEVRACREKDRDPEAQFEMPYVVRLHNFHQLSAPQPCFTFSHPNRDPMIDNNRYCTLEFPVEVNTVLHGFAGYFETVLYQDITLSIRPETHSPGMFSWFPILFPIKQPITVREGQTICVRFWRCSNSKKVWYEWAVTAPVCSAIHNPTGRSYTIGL
T1 sequence (Q9BQA1 whole entry partner): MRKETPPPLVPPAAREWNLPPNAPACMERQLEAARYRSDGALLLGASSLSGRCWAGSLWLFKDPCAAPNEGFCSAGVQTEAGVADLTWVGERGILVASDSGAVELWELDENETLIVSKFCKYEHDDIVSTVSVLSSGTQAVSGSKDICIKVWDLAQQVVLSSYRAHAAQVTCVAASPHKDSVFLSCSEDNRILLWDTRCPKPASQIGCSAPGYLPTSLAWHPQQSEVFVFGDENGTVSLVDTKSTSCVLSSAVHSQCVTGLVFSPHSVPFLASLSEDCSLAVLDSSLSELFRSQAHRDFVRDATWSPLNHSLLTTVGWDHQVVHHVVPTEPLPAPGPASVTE
Method in brief: (§1)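 Three cofactor conditions tested for PRMT5 inhibition: none, MTA and SAM, each giving an IC50. For conversion to Ki, the MTA-condition IC50 is divided by 13.5 and the SAM-condition IC50 by 1.5, and the two Ki values are expressed as a SAM/MTA ratio.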

[3] = target: T1, PRMT5; experiment: PRMT5 IC50 assay in the presence of SAM as cofactor; format: biochemical
Method in brief: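 Potency against PRMT5 is compared across cofactor states, where IC50 equals Ki×1.5 with SAM present and Ki×13.5 with MTA present.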

[4] = system: HAP1 MTAP-deleted; experiment: SDMA in-cell western assay, HAP1 MTAP-deleted cell line; format: cell-based; settings: for IC50: Homo sapiens, HAP1 MTAP-deleted cell line; for MTAP Intact/Deleted Ratio: IC50 ratio HAP1 MTAP-intact / HAP1 MTAP-deleted
Method in brief: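 IC50 from SDMA in-cell western; HAP1 line lacking MTAP (null), paired isogenically with MTAP-intact HAP1 expressing endogenous MTAP.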

[5] = target: T1, PRMT5; experiment: PRMT5 IC50 assay in the presence of MTA as cofactor; format: biochemical; settings: for IC50: PRMT5, MTA as cofactor
Method in brief: as §1

| SMILES | IC50 [1] [nM] | IC50 ([2]; read-out: No Co-factor IC50) [nM] | IC50 [3] [nM] | IC50 [4] [nM] | MTAP Intact/Deleted Ratio [4] | IC50 [5] [nM] | SAM/MTA Ratio ([5]; ratio between Ki in the presence of SAM and Ki in the presence of MTA) | IC50 [2] [nM] | SAM/MTA Ratio ([5]; ratio between the Ki in the presence of SAM and the Ki in the presence of MTA) |
| --- | --- | --- | --- | --- | --- | --- | --- | --- | --- |
| O=C(NC[C@H](O)CN1CCc2cc(OCc3cnco3)ccc2C1)c1cc(NC2COC2)nc(N2CCN(C(=O)C3CC3)CC2)n1 [Compound 290, (S)-2-(4-(cyclopropanecarbonyl)piperazin-1-yl)-N-(2-hydroxy-3-(6-(oxazol-5-ylmethoxy)-3,4-dihydroisoquinolin-2(1H)-yl)propyl)-6-(oxetan-3-ylamino)pyrimidine-4-carboxamide] | 1000 to 10000 | 500 to 5000 | 50 to 500 | 1000 to 10000 | B* (an IC50 ratio greater than or equal to 3 fold but lower than 10 fold between the IC50 in the HAP1 MTAP-intact cell line and the HAP1 MTAP-deleted cell line) | 50 to 500 | A (a Ki ratio greater than or equal to 10 fold between the Ki in the presence of SAM and the Ki in the presence of MTA) |  |  |
| CC(=O)N1CCC(Nc2cccc(C(=O)NC[C@H](O)CN3CCc4c(ccc(OCc5cnco5)c4C)C3)c2)CC1 [Compound 529, 3-[(1-acetylpiperidin-4-yl)amino]-N-[(2S)-2-hydroxy-3-{5-methyl-6-[(1,3-oxazol-5-yl)methoxy]-1,2,3,4-tetrahydroisoquinolin-2-yl}propyl]benzamide] | ≥ 10000 |  | 50 to 500 | 1000 to 10000 | B* (an IC50 ratio greater than or equal to 3 fold but lower than 10 fold between the IC50 in the HAP1 MTAP-intact cell line and the HAP1 MTAP-deleted cell line) | 50 to 500 |  | 500 to 5000 | A (a Ki ratio greater than or equal to 10 fold between the Ki in the presence of SAM and the Ki in the presence of MTA) |
